Earlier results on 1 compound are cited in US10307441B2, “Pharmaceutical formulations of nitrite and uses thereof” (Board of Supervisors of Louisiana State University and …, priority 2009, dated 2019).

Setting [1] is: assumed mid-range PK constant for simulation.

In the case of `O=NO` [NaNO2, Sodium nitrite], the oral bioavailability (assumed PK constant for simulation) is recorded as 100%. Further, under setting [1], the clearance (usually a measure of how efficiently the substance is removed, as volume per time) is 60.375 L/h and the half-life – broadly, the time needed for the level to fall by half in the phase considered – is 45 min.
